# Reference: paper PMC11956012, “Optimization of Cyclophilin B-Targeted Tri-vector Inhibitors for Novel MASH Treatments” (Journal of Medicinal Chemistry, 2025)
# Read-outs that look alike come from different tables or passages of the source.
# What was measured:
# [1] = design: method as in PMID 38324483; conditions: phase III trial; cited from earlier work
# iPSC-derived hepatocytes = assay: In vitro hepatic steatosis (MASH) assay; format: cell-based; conditions: 48 h treatment
# [2] = Intrinsic clearance, human hepatocytes; format: in vitro ADME; conditions: for hepatocyte CLint: Table 3, read-out: Human Hepatocytes CL
# CYP2C19 = molecular target: T1, CYP2C19 (Homo sapiens, UniProt P33261); assay: Cytochrome P450 inhibition CYP2C19; format: in vitro ADME; conditions: single point at 10 μM; substrate omeprazole
# T1 construct: Eurofins (subcontracted)
# Caco-2 permeability = conditions: human, Caco-2
# Caco-2 = Caco-2 permeability; conditions: apparent permeability A-B
# CYP1A = assay: Cytochrome P450 inhibition CYP1A; format: in vitro ADME; conditions: human, probe phenacetin; single point at 10 μM; substrate phenacetin
# CYP3A = assay: Cytochrome P450 inhibition CYP3A; format: in vitro ADME; conditions: human, single point at 10 μM
# Cyp A [3] = molecular target: T2, Cyp A (Homo sapiens, UniProt P62937); assay: Isothermal titration calorimetry (ITC), Cyp A; format: binding; design: full-length human CypA (M1 – E165); made in house; host or cells: Escherichia coli OverExpress C41 BL21(DE3); conditions: 25 °C
# Experimental: All ITC experiments were carried out at 25°C on a MicroCal Auto iTC200 (GE Healthcare)
# solutions were heated to 65°C and/or sonicated prior to the experiment. Each experiment
# consisted of an initial injection of 0.4 μL followed by repeated 2 μL injections to achieve
# saturation. In all cases the first injection
# was omitted from the data processing. All data were analysed using the MicroCal PEAQ-ITC
# Analysis software. A fixed stoichiometry to 1 was applied during the non-linear regression of
# the raw data for fitting the data.
# [4] = test system: Salmonella typhimurium TA1537; assay: Ames fluctuation test TA1537
# Experimental: (§2) Bacterial cytotoxicity tests were carried out using Reverted Salmonella typhimurium strains
# (§3) (TA98, TA100, TA1535, TA1537) that were incubated 96 hours at 37 Celsius. The results for
# (§4) cytotoxicity are expressed as percent of control growth (OD650). Compounds with growth of
# (§5) less than 60 % of control are flagged and considered cytotoxic.
# (§6) Compounds were incubated for 96 hours at 37°C at 4 different concentrations (5 mM, 10 mM,
# (§7) the absence and presence of rat liver S9 microsomes.
# (§8) to the reversion of the histidine mutation (as judged by the ratio of OD430/OD570 being greater
# (§9) than 1.0) are counted and recorded as positive counts. The significance of the positive counts
# (§10) between the treatment (in the presence of test compound) and the control (in the absence of test
# (§11) compound) are calculated using the one-tailed Fisher's exact test. Three significance levels are
# (§12) Very strong positive, if p < 0.001, denoted as "+++"
# (§13) Control experiments were carried out with 2-aminoanthracene (10 mM), 9-aminoacridine (10
# (§14) mM), quercetin (30 mM) and streptozocitin (2.5 mM).
# [5] = test system: Salmonella typhimurium TA100; assay: Ames fluctuation test TA100
# Experimental: as §2, §3, §4, §5, §6, §7, §8, §9, §10, §11, §12, §13, §14
# [6] = test system: Salmonella typhimurium TA1535; assay: Ames fluctuation test TA1535
# Experimental: as §2, §3, §4, §5, §6, §7, §8, §9, §10, §11, §12, §13, §14
# Cyp B [7] = molecular target: T3, Cyp B (Homo sapiens, UniProt P23284); conditions: from SPR Kd
# Experimental: (§15) The cyclophilin binding properties of the compounds were assessed by Surface Plasmon Resonance (SPR) against Cyp A, B and D isoforms (Table 1, representative sensorgrams are shown in Figure 3A).[35]
# Surface Plasmon Resonance (SPR)
# (§16) SPR measurements were performed on a Biacore T200 instrument (Cytiva). Ni2+ -
# (§17) nitrilotriacetic acid (NTA) sensor chips, 1-ethyl-3-(3-diaminopropyl) carbodiimide
# (§18) hydrochloride (EDC) and N hydroxy succinimide (NHS) were purchased from Cytiva.
# (§19) Immobilization and covalent stabilization of His-Cyps Pure His-cyclophilins on the NTA
# (§20) sensor chip was performed essentially as described. [Wear et al., 2017, FEBS OpenBio], using
# (§21) 200 nM concentrations of each protein, in Running Buffer (PBS, pH7.4; 0.05 % surfactant P20,
# (§22) 2% v/v ethanol; 50 µM EDTA), at 30 µl min-1 with 60 second contact times on the activated
# (§23) NTA surfaces. This gave signals of 1,921 RU for His-CypA, 1932 RU for His-CypB and 1,397
# (§24) RU for His-CypD. Specific surface protein activity was assayed by passing saturating amounts
# (§25) activity were obtained for His-CypA, -B and –D, respectively.
# Kinetic titration experiments
# (§26) Single cycle kinetic titration binding experiments were performed in triplicate at 25 °C. 3-fold
# (§27) injected over the sensor surface, at 100 µl min-1 with a 90 s contact time and a 90 s dissociation
# (§28) time. The sensor surface was regenerated between experiments by dissociating any formed
# (§29) complex in running buffer for at least 1,200 seconds. The apparent on-rate (k+) and off-rate (k-
# (§30) ) constants and the equilibrium dissociation constant (Kd) were calculated from reference
# [8] = Intrinsic clearance, rat liver microsomes; format: in vitro ADME; conditions: for microsomal CLint: Table 3, read-out: Rat Liver microsomes CL
# [9] = Human plasma protein binding; format: in vitro ADME
# Text: (§1) These experiments were subcontracted to Eurofins. […]
# [10] = Aqueous kinetic solubility, shake-flask
# Experimental: (§31) Kinetic solubility measurements were carried out using a shake-flask technique. Compounds
# (§32) were incubated for 24 hours at room temperature. Aqueous solubility (μM) was determined by
# (§33) comparing the peak area of the principal peak in a calibration standard (200 μM) containing
# (§34) organic solvent (methanol/water, 60/40, v/v) with the peak area of the corresponding peak in a
# (§35) buffer sample. In addition, chromatographic purity (%) was defined as the peak area of the
# (§36) principal peak relative to the total integrated peak area in the HPLC chromatogram of the
# (§37) calibration standard. A chromatogram of the calibration standard of each test compound, along
# (§38) with a UV/VIS spectrum with labeled absorbance maxima, was generated.
# (§39) These were measured using a shake-flask technique. Compounds were incubated for 60 min at
# (§40) room temperature. The total amount of compound was determined as the peak area of the
# (§41) principal peak in a calibration standard (100 μM) containing organic solvent (methanol/water,
# (§42) 60/40, v/v). The amount of compound in buffer was determined as the combined, volume
# (§43) corrected, and weighted areas of the corresponding peaks in the aqueous phases of three
# (§44) organic-aqueous samples of different composition. An automated weighting system was used
# (§45) to ensure the preferred use of raw data from those samples with well quantifiable peak signals.
# (§46) The amount of compound in organic was calculated by subtraction. Subsequently, Log D was
# (§47) calculated as the Log10 of the amount of compound in the organic phase divided by the amount
# of compound in the aqueous phase.
# Cyp D [11] = molecular target: T4, Cyp D (Homo sapiens, UniProt P30405)
# Experimental: as §15
# Surface Plasmon Resonance (SPR)
# as §16, §17, §18, §19, §20, §21, §22, §23, §24, §25
# Kinetic titration experiments
# as §26, §27, §28, §29, §30
# [12] = Intrinsic clearance, human liver microsomes; format: in vitro ADME; conditions: for microsomal CLint: Table 3, read-out: Human Liver microsomes CL
# [13] = Intrinsic clearance, rat hepatocytes; format: in vitro ADME; conditions: for hepatocyte CLint: Table 3, read-out: Rat Hepatocytes CL
# CYP2D6 = molecular target: T5, CYP2D6 (Homo sapiens, UniProt P10635); assay: Cytochrome P450 inhibition CYP2D6; format: in vitro ADME; conditions: single point at 10 μM; substrate dextrometorphan
# T5 construct: Eurofins (subcontracted)
# [14] = Partition coefficient (Log D), shake-flask; conditions: octanol/water
# Experimental: as §31, §32, §33, §34, §35, §36, §37, §38, §39, §40, §41, §42, §43, §44, §45, §46, §47
# of compound in the aqueous phase.
# CYP2B6 = molecular target: T6, CYP2B6 (Homo sapiens, UniProt P20813); assay: Cytochrome P450 inhibition CYP2B6; format: in vitro ADME; conditions: single point at 10 μM; substrate bupropion
# T6 construct: Eurofins (subcontracted)
# T6 sequence (P20813 1-491): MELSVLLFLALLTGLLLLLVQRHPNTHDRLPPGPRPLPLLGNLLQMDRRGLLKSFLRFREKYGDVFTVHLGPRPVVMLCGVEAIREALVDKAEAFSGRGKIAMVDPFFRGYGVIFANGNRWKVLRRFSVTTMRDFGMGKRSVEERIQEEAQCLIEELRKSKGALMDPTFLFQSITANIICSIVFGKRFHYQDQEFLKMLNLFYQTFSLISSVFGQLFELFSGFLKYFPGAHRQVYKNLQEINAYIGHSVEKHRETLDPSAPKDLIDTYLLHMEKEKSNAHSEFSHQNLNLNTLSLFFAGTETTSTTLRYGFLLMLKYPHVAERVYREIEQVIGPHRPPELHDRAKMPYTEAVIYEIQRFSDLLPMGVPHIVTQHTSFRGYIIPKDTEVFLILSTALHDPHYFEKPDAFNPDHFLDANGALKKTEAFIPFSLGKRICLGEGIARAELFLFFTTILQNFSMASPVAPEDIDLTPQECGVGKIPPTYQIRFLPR
# [15] = test system: Salmonella typhimurium strains (TA98, TA100, TA1535, TA1537); assay: Ames tests, all strains (summary in words); conditions: in absence and presence of liver S9 fractions
# Experimental: as §2, §3, §4, §5, §6, §7, §8, §9, §10, §11, §12, §13, §14
# [16] = test system: Salmonella typhimurium TA98; assay: Ames fluctuation test TA98
# Experimental: as §2, §3, §4, §5, §6, §7, §8, §9, §10, §11, §12, §13, §14
# Cyp B [17] = molecular target: T3, Cyp B; assay: biochemical
# Experimental: as §15
# Surface Plasmon Resonance (SPR)
# as §16, §17, §18, §19, §20, §21, §22, §23, §24, §25
# Kinetic titration experiments
# as §26, §27, §28, §29, §30
# [18] = Rat plasma protein binding; format: in vitro ADME
# Text: as §1
# Cyp A [19] = molecular target: T2, Cyp A
# Experimental: as §15
# Surface Plasmon Resonance (SPR)
# as §16, §17, §18, §19, §20, §21, §22, §23, §24, §25
# Kinetic titration experiments
# as §26, §27, §28, §29, §30
# CYP2C9 = molecular target: T7, CYP2C9 (Homo sapiens, UniProt P11712); assay: Cytochrome P450 inhibition CYP2C9; format: in vitro ADME; conditions: single point at 10 μM; substrate diclofenac
# T7 construct: Eurofins (subcontracted)
# CYP2C8 = molecular target: T8, CYP2C8 (Homo sapiens, UniProt P10632); assay: Cytochrome P450 inhibition CYP2C8; format: in vitro ADME; conditions: single point at 10 μM; substrate amodiaquine
# T8 construct: Eurofins (subcontracted)
# T8 sequence (P10632 1-490): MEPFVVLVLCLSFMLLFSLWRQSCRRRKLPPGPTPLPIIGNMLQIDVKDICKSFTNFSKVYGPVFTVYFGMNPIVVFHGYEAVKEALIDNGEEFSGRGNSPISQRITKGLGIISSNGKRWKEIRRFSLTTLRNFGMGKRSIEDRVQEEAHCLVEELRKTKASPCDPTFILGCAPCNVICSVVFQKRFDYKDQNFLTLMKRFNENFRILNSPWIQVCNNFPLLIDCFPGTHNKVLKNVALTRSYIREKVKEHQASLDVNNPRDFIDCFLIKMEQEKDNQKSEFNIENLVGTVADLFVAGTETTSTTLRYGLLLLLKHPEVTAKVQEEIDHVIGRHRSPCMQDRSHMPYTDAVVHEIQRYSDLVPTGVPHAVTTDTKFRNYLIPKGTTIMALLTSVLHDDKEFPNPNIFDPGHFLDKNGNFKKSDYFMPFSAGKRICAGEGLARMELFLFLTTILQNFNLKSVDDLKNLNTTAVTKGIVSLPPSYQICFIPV
# physchem [20] = assay: physchem
# Experimental: as §31, §32, §33, §34, §35, §36, §37, §38, §39, §40, §41, §42, §43, §44, §45, §46, §47
# of compound in the aqueous phase.
# Cyp D [21] = molecular target: T4, Cyp D; assay: SPR kinetic titration, Cyp D
# Experimental: as §15
# Surface Plasmon Resonance (SPR)
# as §16, §17, §18, §19, §20, §21, §22, §23, §24, §25
# Kinetic titration experiments
# as §26, §27, §28, §29, §30
# [22] = test system: permeabilised human hepatocyte (HepG2) cells; assay: Calcium Retention Capacity assay; format: cell-based
# Experimental: Calcium Retention Capacity Assay
# The compounds were prepared as a 10 mM stock solution in 100% DMSO. Subsequent dilutions were made in 100% DMSO and then in assay buffer to 10-fold the final concentration.
# HepG2 cells were permeabilized with 100 µM digitonin for 10 min in ice cold buffer containing 1mM EGTA. Following two wash steps to remove the digitonin, the cells were plated into 96 well black and clear plates at 106 cell per well in a 180 µL assay buffer containing 0.5 µM Calcium Green 5N. Compounds dilution were prepared in DMSO to 1000 fold the final concentration, diluted 1:100 in assay buffer and added to the assay as 20 µL per well. The assay buffer contained 5 mM glutamate and 2.5 mM malate. The cell plate was immediately run on the FLIPR Tetratm which added 5 µL of 200 µM (5 µM) calcium chloride every 5 minutes whilst reading the plate every 3 seconds. The area under the curve (AUC) of the raw trace was calculated at each concentration. AUC values were plotted against concentration and EC50 values calculated. Experiments were repeated three times and the EC50 value was determined from a curve fitted to the averaged replicates.
# Cyp A [23] = molecular target: T2, Cyp A; assay: SPR kinetic titration, Cyp A
# Experimental: as §15
# Surface Plasmon Resonance (SPR)
# as §16, §17, §18, §19, §20, §21, §22, §23, §24, §25
# Kinetic titration experiments
# as §26, §27, §28, §29, §30
# in vitro = conditions: human, Caco-2
# physchem [24] = assay: physchem; remark: listed apart in the source
# Experimental: as §31, §32, §33, §34, §35, §36, §37, §38, §39, §40, §41, §42, §43, §44, §45, §46, §47
# of compound in the aqueous phase.
# [25] = Hepatocyte, 48 h, 95% CI [lower limit, upper limit], read-out: EC50 steatosis
# [26] = Kd Cyp B, SPR-derived dissociation constant, 25 °C
# T2 sequence (P62937 whole entry): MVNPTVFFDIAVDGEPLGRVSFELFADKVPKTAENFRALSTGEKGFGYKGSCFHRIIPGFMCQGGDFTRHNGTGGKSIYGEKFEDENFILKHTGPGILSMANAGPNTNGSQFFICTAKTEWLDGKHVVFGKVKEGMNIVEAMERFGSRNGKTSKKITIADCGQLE
# T3 sequence (P23284 32-216 limits assumed): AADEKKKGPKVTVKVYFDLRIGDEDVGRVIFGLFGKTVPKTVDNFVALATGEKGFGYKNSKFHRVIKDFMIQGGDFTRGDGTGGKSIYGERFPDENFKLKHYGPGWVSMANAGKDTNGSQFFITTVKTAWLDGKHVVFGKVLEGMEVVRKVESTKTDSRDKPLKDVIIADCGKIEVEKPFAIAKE
# T4 sequence (P30405 42-207): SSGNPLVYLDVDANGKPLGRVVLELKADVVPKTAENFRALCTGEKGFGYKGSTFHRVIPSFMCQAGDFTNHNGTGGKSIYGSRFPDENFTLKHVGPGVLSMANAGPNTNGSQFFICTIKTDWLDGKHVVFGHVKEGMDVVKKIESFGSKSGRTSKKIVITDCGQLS
# T1 sequence (P33261 whole entry): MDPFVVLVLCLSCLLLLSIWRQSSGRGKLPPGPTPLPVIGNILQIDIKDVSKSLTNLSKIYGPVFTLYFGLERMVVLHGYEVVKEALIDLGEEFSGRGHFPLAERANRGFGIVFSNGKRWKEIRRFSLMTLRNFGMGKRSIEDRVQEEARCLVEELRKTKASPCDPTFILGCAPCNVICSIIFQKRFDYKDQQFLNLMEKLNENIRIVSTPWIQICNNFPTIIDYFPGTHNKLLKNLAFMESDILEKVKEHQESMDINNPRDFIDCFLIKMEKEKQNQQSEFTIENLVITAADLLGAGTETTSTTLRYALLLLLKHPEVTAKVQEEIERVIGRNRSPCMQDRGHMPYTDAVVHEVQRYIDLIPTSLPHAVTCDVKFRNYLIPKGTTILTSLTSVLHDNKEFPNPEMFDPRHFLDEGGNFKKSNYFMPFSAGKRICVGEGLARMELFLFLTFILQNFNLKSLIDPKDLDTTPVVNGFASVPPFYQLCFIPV
# T5 sequence (P10635 whole entry): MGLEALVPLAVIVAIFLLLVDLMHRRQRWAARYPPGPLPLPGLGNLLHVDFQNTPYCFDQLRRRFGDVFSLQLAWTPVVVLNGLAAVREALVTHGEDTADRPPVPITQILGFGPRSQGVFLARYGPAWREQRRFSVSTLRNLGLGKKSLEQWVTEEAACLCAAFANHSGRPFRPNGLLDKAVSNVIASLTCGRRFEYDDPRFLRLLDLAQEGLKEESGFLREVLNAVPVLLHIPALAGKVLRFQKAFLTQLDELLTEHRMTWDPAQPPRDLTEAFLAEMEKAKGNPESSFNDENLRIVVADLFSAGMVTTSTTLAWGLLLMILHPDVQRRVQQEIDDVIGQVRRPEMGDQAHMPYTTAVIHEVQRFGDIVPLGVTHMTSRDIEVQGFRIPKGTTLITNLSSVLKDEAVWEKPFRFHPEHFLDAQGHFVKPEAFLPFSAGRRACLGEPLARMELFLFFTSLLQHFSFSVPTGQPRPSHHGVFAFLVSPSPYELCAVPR
# T7 sequence (P11712 whole entry): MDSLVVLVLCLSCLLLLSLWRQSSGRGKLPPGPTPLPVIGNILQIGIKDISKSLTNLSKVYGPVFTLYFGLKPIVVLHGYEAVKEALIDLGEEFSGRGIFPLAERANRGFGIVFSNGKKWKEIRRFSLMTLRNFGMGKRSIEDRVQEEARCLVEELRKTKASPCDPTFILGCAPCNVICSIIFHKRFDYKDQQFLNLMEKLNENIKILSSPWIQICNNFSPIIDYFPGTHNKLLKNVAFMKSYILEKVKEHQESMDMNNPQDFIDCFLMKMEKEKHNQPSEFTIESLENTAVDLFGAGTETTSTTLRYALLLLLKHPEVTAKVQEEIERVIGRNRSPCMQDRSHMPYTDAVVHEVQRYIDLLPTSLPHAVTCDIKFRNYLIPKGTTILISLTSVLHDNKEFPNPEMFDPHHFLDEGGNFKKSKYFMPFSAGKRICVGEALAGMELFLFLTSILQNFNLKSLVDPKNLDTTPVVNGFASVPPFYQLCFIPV
smiles,measurement,setting,value
"CC(C)c1cc(Oc2c(Cl)cc(-n3nc(C#N)c(=O)[nH]c3=O)cc2Cl)n[nH]c1=O [Resmetirom, reference compound]",patients with improved liver pathology,[1],25–30%
same,EC50,"iPSC-derived hepatocytes; 95% CI [lower limit, upper limit], listed as Res, read-out: EC50 steatosis",0.261 µM
same,EC50,iPSC-derived hepatocytes; [25],~0.3 µM
"CSc1ccccc1[C@H]1CCCN1C(=O)CNC(=O)N(Cc1ccc(N)c(Cl)c1)Cc1nnn(C)n1 [Compound 11, 1-[(4-Amino-3-chloro-phenyl)methyl]-1-[(2-methyltetrazol-5-yl)methyl]-3-[2-oxo-2-[(2R)-2-(2-methylsulfanylphenyl)pyrrolidin-1-yl]ethyl]urea]",hepatocyte CLint,[2]; hepatocytes,13 µL/min/1e6 cells
same,half-life,"[2]; hepatocytes, read-out: Human Hepatocytes t1/2",74 min
same,CYP2C19 omeprazole % inhibition,CYP2C19,72%
same,efflux ratio,Caco-2 permeability,2.8
same,Caco-2 A-B,Caco-2,5 10^–6 cm/s
same,inhibition at 10 µM,CYP1A,25%
same,inhibition at 10 µM,"CYP3A; probe midazolam, substrate midazolam, read-out: CYP3A midazolam % inhibition",73%
same,inhibition at 10 µM,"CYP3A; probe testoterone, substrate testoterone, read-out: CYP3A testoterone % inhibition",59%
same,DG (ITC),Cyp A [3]; ITC titration to Cyp A,-9.7 ± 0.1 kcal/mol
same,DH (ITC),Cyp A [3]; ITC titration to Cyp A,-16.4 ± 0.1 kcal/mol
same,TDS (ITC),Cyp A [3]; ITC titration to Cyp A,-6.7 kcal/mol
same,Kd,"Cyp A [3]; ITC, pH 6.5, 2% DMSO, read-out: Kd Cyp A from ITC",0.082 ± 0.006 µM
same,Ames fluctuation test TA1537 +S9,[4]; with rat liver S9,neg/neg
same,Ames fluctuation test TA1537 –S9,[4]; without S9,neg/neg
same,effect on hepatocyte overall lipid levels and lipid droplet size (in words),iPSC-derived hepatocytes,significant reduction
same,EC50,iPSC-derived hepatocytes; [25],~0.3 µM
same,EC50,"iPSC-derived hepatocytes; Hepatocyte, 48 h, read-out: EC50 MASH assay",0.258 µM
same,Ames fluctuation test TA100 +S9,[5]; with rat liver S9,neg/neg
same,Ames fluctuation test TA100 –S9,[5]; without S9,neg/neg
same,Ames fluctuation test TA1535 +S9,[6]; with rat liver S9,neg/neg
same,Ames fluctuation test TA1535 –S9,[6]; without S9,neg/neg
same,greater affinity for Cyp B compared to 12,Cyp B [7],ca. 7 fold
same,selectivity for Cyp B over Cyp A,Cyp B [7],10 fold
same,selectivity for Cyp B over Cyp A and Cyp D,Cyp B [7],10–20 fold
same,microsomal CLint,[8],352 µL/min/mg
same,half-life,[8]; read-out: Rat Liver microsomes t1/2,20 min
same,recovery,[9],88%
same,fraction unbound at 10 µM,[9]; read-out: Human PPB free,0.02
same,solubility at 24 h,"[10]; PBS, pH 7.4",> 200 µM
same,solubility at 24 h,[10]; simulated gastric fluid,> 200 µM
same,solubility at 24 h,[10]; simulated intestinal fluid,> 200 µM
same,Kd,Cyp D [11],0.18 ± 0.1 µM
same,microsomal CLint,[12],558 µL/min/mg
same,half-life,[12]; read-out: Human Liver microsomes t1/2,12 min
same,hepatocyte CLint,[13]; hepatocytes,13 µL/min/1e6 cells
same,half-life,"[13]; hepatocytes, read-out: Rat Hepatocytes t1/2",78 min
same,CYP2D6 dextrometor. % inhibition,CYP2D6,18%
same,"logD at 1 h, 100 µM",[14],1.53
same,CYP2B6 bupropion % inhibition,CYP2B6,11%
same,Ames result in all strains tested,[15],negative
same,Ames fluctuation test TA98 +S9,[16]; with rat liver S9,neg/neg
same,Ames fluctuation test TA98 –S9,[16]; without S9,neg/neg
same,Kd,Cyp B [17]; [26],0.012 ± 0.003 µM
same,recovery at 10 μM,[18],99%
same,fraction unbound at 10 µM,[18]; read-out: Rat PPB free,0.11
same,Kd,Cyp A [19],0.11 ± 0.05 µM
same,CYP2C9 diclofenac % inhibition,CYP2C9,45%
same,CYP2C8 amodiaquine % inhibition,CYP2C8,71%
"CSc1ccccc1[C@H]1CCCN1C(=O)CNC(=O)N(Cc1ccc2c(c1)[C@H]1C[C@@H](N2)[C@H](O)CO1)Cc1nnn(C)n1 [Compound 3, 1-[[(1S,9R,10S)-10-Hydroxy-12-oxa-8-azatricyclo[7.3.1.0,^27]trideca-2,4,6-trien-4-yl]methyl]-3-[2-[(2R)-2-(2-methylsulfanylphenyl)pyrrolidin-1-yl]-2-oxo-ethyl]-1-[(2-methyltetrazol-5-yl)methyl]urea]",half-life,[2]; cryopreserved hepatocytes,> 120 min
same,hepatocyte CLint,[2]; cryopreserved hepatocytes,< 8 µL/min/1e6 cells
same,logD,physchem [20],0.66
same,Kd,Cyp D [21],0.008 ± 0.003 µM
same,EC50,"[22]; Homo sapiens, HepG2, read-out: EC50 CRC assay",0.244 µM
same,greater efficacy over CsA in the calcium retention assay,[22]; from EC50 values,2 fold
same,selectivity for Cyp B over Cyp A,Cyp B [7],3 fold
same,half-life,[8],51 min
same,microsomal CLint,[8],137 µL/min/mg
same,Kd,Cyp A [23],0.006 ± 0.002 µM
same,Papp A→B,in vitro,0.03 ×10⁻⁶ cm/s
same,efflux ratio,in vitro,37
same,half-life,[12],41 min
same,microsomal CLint,[12],169 µL/min/mg
same,half-life,[13]; cryopreserved hepatocytes,> 120 min
same,hepatocyte CLint,[13]; cryopreserved hepatocytes,< 8 µL/min/1e6 cells
same,solubility,physchem [24],54 µM
same,solubility,physchem [24]; pH 7.4,> 200 µM
same,Kd,Cyp B [17]; [26],0.002 ± 0.001 µM
"CSc1ccccc1[C@H]1CCCN1C(=O)CN1C(=O)CN(Cc2cc(F)c(N)c(F)c2)C1=O [Compound 15, 1-[(4-Amino-3,5-difluoro-phenyl)methyl]-3-[2-oxo-2-[(2R)-2-(2-methylsulfanylphenyl)pyrrolidine-1-yl]ethyl]imidazolidine-2,4-dione]",Kd,Cyp A [23],6.7 ± 2.6 µM
same,Kd,Cyp D [11],6.3 ± 1.6 µM
same,Kd,Cyp B [17],3.8 ± 1.3 µM
